Test results: ChEMBL document CHEMBL5233246, “CT1-3, a novel magnolol-sulforaphane hybrid suppresses tumorigenesis through inducing mitochondria-mediated apoptosis and inhibiting epithelial mesenchymal transition” (Eur J Med Chem, 2020)
The source made the active and inactive calls. The calls are words filed in the database; no cut-off is given here.

Tests used:
OVCAR-3 [1] = test: Inhibition of colony formation in human OVCAR-3 cells incubated for 48 hrs by Giemsa staining based microscopy; type: functional, cell-based
NCI-H460 [2] = test: Induction of apoptosis in human NCI-H460 cells assessed as decrease in Bcl-2 protein expression level at 7.5 uM incubated for 24 hrs by western blot assay; type: functional, cell-based
MDA-MB-231 [3] = test: Antitumor activity against human MDA-MB-231 cells xenografted in BALB/c mouse assessed as tumor necrosis at 20 mg/kg,ip measured after 28 days; type: functional, organism-based; settings: time 28.0 day
LoVo [4] = test: Induction of apoptosis in human LoVo cells assessed as decrease in XIAP protein expression level at 7.5 uM incubated for 24 hrs by western blot assay; type: functional, cell-based
SW480 [5] = test: Antiproliferative activity against human SW480 cells assessed as reduction in cell viability incubated for 24 hrs by CCK-8 assay; type: functional, cell-based; settings: SW480, 24 h
LoVo [6] = test: Inhibition of cell migration in human LoVo cells at 7.5 uM incubated for 24 hrs by crystal violet staining based transwell assay; type: functional
NCI-H460 [7] = test: Induction of apoptosis in human NCI-H460 cells assessed as increase in JNK phosphorylation level at 7.5 uM incubated for 24 hrs by western blot assay; type: functional, cell-based
OVCAR-3 [8] = test: Antitumor activity against human OVCAR-3 cells xenografted in BALB/c mouse assessed as reduction in tumor growth at 20 mg/kg,ip measured after 28 days; type: functional, organism-based; settings: time 28.0 day
NCI-H460 [9] = test: Induction of apoptosis in human NCI-H460 cells assessed as reduction of mitochondrial membrane potential at 10 uM incubated for 8 hrs by JC-1 staining based fluorescence microscopic assay; type: functional, cell-based
AGS = test: Inhibition of colony formation in human AGS cells incubated for 48 hrs by Giemsa staining based microscopy; type: functional, cell-based
NCI-H460 [10] = test: Inhibition of cell invasion in human NCI-H460 cells at 7.5 uM incubated for 24 hrs by matrigel based transwell assay; type: functional
U-251 = test: Antiproliferative activity against human U-251 cells assessed as reduction in cell viability incubated for 24 hrs by CCK-8 assay; type: functional, cell-based; settings: U-251, 24 h
LoVo [11] = test: Inhibition of cell invasion in human LoVo cells at 7.5 uM incubated for 24 hrs by matrigel based transwell assay; type: functional
HONE1 cell line = test: Antiproliferative activity against human HONE1 cell line assessed as reduction in cell viability incubated for 24 hrs by CCK-8 assay; type: functional, cell-based; settings: HONE1, 24 h
A549 [12] = test: Antitumor activity against human A549 cells xenografted in BALB/c mouse assessed as reduction in tumor growth at 20 mg/kg,ip measured after 28 days; type: functional, organism-based; settings: time 28.0 day
SW480 [13] = test: Inhibition of colony formation in human SW480 cells incubated for 48 hrs by Giemsa staining based microscopy; type: functional, cell-based
[14] = Antiproliferative activity against human NCI-H1688 cells assessed as reduction in cell viability incubated for 24 hrs by CCK-8 assay; type: functional, cell-based; settings: NCI-H1688, 24 h
HepG2 = test: Antiproliferative activity against human HepG2 cells assessed as reduction in cell viability incubated for 24 hrs by CCK-8 assay; type: functional, cell-based; settings: HepG2, 24 h
NCI-H460 [15] = test: Induction of apoptosis in human NCI-H460 cells assessed as increase in ROS level at 10 uM incubated for 8 hrs by H2DCFDA staining based fluorescence microscopic assay; type: functional, cell-based
SGC-7901 = test: Antiproliferative activity against human SGC-7901 cells assessed as reduction in cell viability incubated for 24 hrs by CCK-8 assay; type: functional, cell-based; settings: SGC-7901, 24 h
LoVo [16] = test: Inhibition of cell migration in human LoVo cells assessed as downregulation of Snail protein expression at 7.5 uM incubated for 24 hrs by western blot analysis; type: functional, cell-based
LoVo [17] = test: Induction of apoptosis in human LoVo cells assessed as necrotic cells at 10 uM incubated for 24 hrs by annexin V-FITC/propidium iodide staining based flow cytometry analysis (reference value: 0.3%); type: functional
NCI-H460 [18] = test: Induction of apoptosis in human NCI-H460 cells assessed as viable cells at 10 uM incubated for 24 hrs by annexin V-FITC/propidium iodide staining based flow cytometry analysis (reference value: 97.9%); type: functional; settings: read-out: Activity
NCI-H1299 = test: Antiproliferative activity against human NCI-H1299 cells assessed as reduction in cell viability incubated for 24 hrs by CCK-8 assay; type: functional, cell-based; settings: NCI-H1299, 24 h
OVCAR-3 [19] = test: Antiproliferative activity against human OVCAR-3 cells assessed as reduction in cell viability incubated for 24 hrs by CCK-8 assay; type: functional, cell-based; settings: OVCAR-3, 24 h
NCI-H460 [20] = test: Inhibition of colony formation in human NCI-H460 cells incubated for 48 hrs by Giemsa staining based microscopy; type: functional, cell-based
A549 [21] = test: Induction of apoptosis in human A549 cells assessed as early apoptotic cells at 10 uM incubated for 24 hrs by annexin V-FITC/propidium iodide staining based flow cytometry analysis (reference value: 3.6%); type: functional
A549 [22] = test: Induction of apoptosis in human A549 cells assessed as reduction of mitochondrial membrane potential at 10 uM incubated for 8 hrs by JC-1 staining based fluorescence microscopic assay; type: functional, cell-based
MDA-MB-231 [23] = test: Antiproliferative activity against human MDA-MB-231 cells assessed as reduction in cell viability incubated for 24 hrs by CCK-8 assay; type: functional, cell-based; settings: MDA-MB-231, 24 h
[24] = Toxicity in BALB/c mouse xenografted with human MDA-MB-231 cells assessed as kidney pathological change at 20 mg/kg,ip measured after 28 days; type: organism-based; settings: in vivo, 672 h, time 28 day
NCI-H460 [25] = test: Induction of apoptosis in human NCI-H460 cells assessed as late apoptotic cells at 10 uM incubated for 24 hrs by annexin V-FITC/propidium iodide staining based flow cytometry analysis (reference value: 0.4%); type: functional
LoVo [26] = test: Induction of apoptosis in human LoVo cells assessed as late apoptotic cells at 10 uM incubated for 24 hrs by annexin V-FITC/propidium iodide staining based flow cytometry analysis (reference value: 0.4%); type: functional
LoVo [27] = test: Antiproliferative activity against human LoVo cells assessed as reduction in cell viability incubated for 24 hrs by CCK-8 assay; type: functional, cell-based
NCI-H460 [28] = test: Inhibition of cell migration in human NCI-H460 cells at 7.5 uM incubated for 24 hrs by crystal violet staining based transwell assay; type: functional

For `C=CCc1ccc(O)c(-c2cc(CC=C)ccc2OCC[S+]([O-])CCCCN=C=S)c1` (centres undefined), the inhibition (OVCAR-3 [1]) was “Active”, the Activity (NCI-H460 [2]) was “Active” and the Activity (MDA-MB-231 [3]) was “Active”. For the same compound, the Activity (LoVo [4]) was “Active”, the IC50 (SW480 [5]) was 6.07 µM and the inhibition (LoVo [6]) was “Active”. For the same compound, the Activity (NCI-H460 [7]) was “Active”, the Activity (OVCAR-3 [8]) was “Active” and the Activity (NCI-H460 [9]) was “Active”. For the same compound, the inhibition (AGS) was “Active”, the inhibition (NCI-H460 [10]) was “Active” and the IC50 (U-251) was 7.75 µM. The inhibition (LoVo [11]) was “Active”, the IC50 (HONE1 cell line) was 14.1 µM and the Activity (A549 [12]) was “Active”. For the same compound, the inhibition (SW480 [13]) was “Active”, the IC50 [14] was 12.8 µM and the IC50 (HepG2) was 6.24 µM. For the same compound, the Activity (NCI-H460 [15]) was “Active”, the IC50 (SGC-7901) was 11.5 µM and the inhibition (LoVo [16]) was “Active”. For the same compound, the Activity (LoVo [17]) was 38%, the viability at 10 µM (NCI-H460 [18]) was 15.3% and the IC50 (NCI-H1299) was 9.17 µM. The IC50 (OVCAR-3 [19]) was 5.34 µM, the inhibition (NCI-H460 [20]) was “Active” and the Activity (A549 [21]) was 13.9%. For the same compound, the Activity (A549 [22]) was “Active”, the IC50 (MDA-MB-231 [23]) was 7.48 µM and the Activity [24] was “Non-Toxic”. For the same compound, the Activity (NCI-H460 [25]) was 72.9%, the Activity (LoVo [26]) was 23.3% and the IC50 (LoVo [27]) was 5.1 µM. The inhibition (NCI-H460 [28]) was “Active”.
